According to article PMC12298351, “Novel 3,19-(N-Phenyl-3-(4-fluorophenyl)-pyrazole) Acetal of Andrographolide Promotes Cell Cycle Arrest and Apoptosis in MDA-MB-231 Breast Cancer Cells” (Pharmaceuticals, 2025):

Experiments:
SNB-19 = format: cell-based; conditions: SNB-19, CNS
TK-10 = format: cell-based; conditions: TK-10, Renal
BT-549 = format: cell-based; conditions: BT-549, Breast
HCC-2998 = conditions: HCC-2998, Colon
KM12 = conditions: KM12, Colon
SW-620 = conditions: SW-620, Colon
SF-268 = conditions: SF-268, CNS
SF-295 = conditions: SF-295, CNS
SNB-75 = conditions: SNB-75, CNS
MDA-MB-435 = conditions: MDA-MB-435, Melanoma
SK-MEL-2 = conditions: SK-MEL-2, Melanoma
SK-MEL-5 = conditions: SK-MEL-5, Melanoma
IGROV1 = conditions: IGROV1, Ovarian
786-0 = conditions: 786-0, Renal
A498 = conditions: A498, Renal
CAKI-1 = conditions: CAKI-1, Renal
RXF 393 = conditions: RXF 393, Renal
UO-31 = conditions: UO-31, Renal
MCF7 = conditions: MCF7, Breast
[1] = read-out: 50% lethal concentration (LC50)
[2] = read-out: 50% lethal concentration (LC50), Leukemia
[3] = read-out: 50% lethal concentration (LC50), Renal
[4] = read-out: 50% lethal concentration (LC50), Breast

`C=C1CCC2C3(C)COC(c4cn(-c5ccccc5)nc4-c4ccccc4)OC3CCC2(C)C1CC=C1C(=O)OCC1O` (stereo not shown) [1a] showed a GI50 (SNB-19) of 1.85 µM, a Total growth inhibition (TGI) (SNB-19) of 3.78 µM and a CC50 (SNB-19; [1]) of 7.73 µM. It also gave a GI50 (TK-10) of 1.78 µM, a Total growth inhibition (TGI) (TK-10) of 3.39 µM and a CC50 (TK-10; [1]) of 6.46 µM. The GI50 (BT-549) was 1.64 µM, the Total growth inhibition (TGI) (BT-549) was 3.16 µM and the CC50 (BT-549; [1]) was 6.1 µM. The GI50 (CCRF-CEM; Leukemia) was 0.59 µM, the Total growth inhibition (TGI) (CCRF-CEM; Leukemia) was 3.37 µM and the CC50 (CCRF-CEM; [2]) was over 100 µM. It also gave a GI50 (HL-60(TB); Leukemia) of 2.32 µM, a Total growth inhibition (TGI) (HL-60(TB); Leukemia) of 7.4 µM and a CC50 (HL-60(TB); [2]) of over 100 µM. It also gave a GI50 (SR; Leukemia) of 3.79 µM, a Total growth inhibition (TGI) (SR; Leukemia) of over 100 µM and a CC50 (SR; [2]) of over 100 µM. For the same molecule, the Total growth inhibition (TGI) (EKVX; Non-Small Cell Lung) was 4.66 µM, the GI50 (EKVX; Non-Small-Cell Lung) was 2.07 µM and the CC50 (EKVX; read-out: 50% lethal concentration (LC50), Non-Small Cell Lung) was over 100 µM. The Total growth inhibition (TGI) (HOP-62; HOP-62, Non-Small Cell Lung) was 3.84 µM, the GI50 (HOP-62; HOP-62, Non-Small-Cell Lung) was 1.87 µM and the CC50 (HOP-62; read-out: 50% lethal concentration (LC50), HOP-62, Non-Small Cell Lung) was 7.89 µM. For the same molecule, the Total growth inhibition (TGI) (HOP-92; HOP-92, Non-Small Cell Lung) was 2.99 µM, the GI50 (HOP-92; HOP-92, Non-Small-Cell Lung) was 1.53 µM and the CC50 (HOP-92; read-out: 50% lethal concentration (LC50), HOP-92, Non-Small Cell Lung) was 5.83 µM. The Total growth inhibition (TGI) (NCI-H226; NCI-H226, Non-Small Cell Lung) was 4.31 µM, the GI50 (NCI-H226; NCI-H226, Non-Small-Cell Lung) was 1.95 µM and the CC50 (NCI-H226; read-out: 50% lethal concentration (LC50), NCI-H226, Non-Small Cell Lung) was 9.55 µM. For the same molecule, the Total growth inhibition (TGI) (NCI-H460; NCI-H460, Non-Small Cell Lung) was 3.35 µM, the GI50 (NCI-H460; NCI-H460, Non-Small-Cell Lung) was 1.66 µM and the CC50 (NCI-H460; read-out: 50% lethal concentration (LC50), NCI-H460, Non-Small Cell Lung) was 6.74 µM. It also gave a GI50 (HCC-2998) of 1.68 µM, a Total growth inhibition (TGI) (HCC-2998) of 3.11 µM and a CC50 (HCC-2998; [1]) of 5.76 µM. It also gave a GI50 (KM12) of 2.06 µM, a Total growth inhibition (TGI) (KM12) of 4.31 µM and a GI50 (SW-620) of 1.73 µM. The Total growth inhibition (TGI) (SW-620) was 3.68 µM, the CC50 (SW-620; [1]) was 7.82 µM and the GI50 (SF-268) was 3.2 µM. It also gave a Total growth inhibition (TGI) (SF-268) of 20.5 µM, a CC50 (SF-268; [1]) of over 100 µM and a GI50 (SF-295) of 1.64 µM. For the same molecule, the Total growth inhibition (TGI) (SF-295) was 3.05 µM, the CC50 (SF-295; [1]) was 5.67 µM and the GI50 (SNB-75) was 1.36 µM. It also gave a Total growth inhibition (TGI) (SNB-75) of 3.9 µM, a CC50 (SNB-75; [1]) of 26.5 µM and a GI50 (MDA-MB-435) of 1.86 µM. The Total growth inhibition (TGI) (MDA-MB-435) was 4.19 µM, the CC50 (MDA-MB-435; [1]) was 9.43 µM and the GI50 (SK-MEL-2) was 1.74 µM. For the same molecule, the Total growth inhibition (TGI) (SK-MEL-2) was 3.54 µM, the CC50 (SK-MEL-2; [1]) was 7.2 µM and the GI50 (SK-MEL-5) was 1.4 µM. The Total growth inhibition (TGI) (SK-MEL-5) was 2.7 µM, the CC50 (SK-MEL-5; [1]) was 5.2 µM and the GI50 (IGROV1) was 1.77 µM. The Total growth inhibition (TGI) (IGROV1) was 3.44 µM, the CC50 (IGROV1; [1]) was 6.66 µM and the GI50 (786-0) was 2.03 µM. The Total growth inhibition (TGI) (786-0) was 4.47 µM, the CC50 (786-0; [1]) was 9.83 µM and the GI50 (A498) was 2.34 µM. It also gave a Total growth inhibition (TGI) (A498) of 6.47 µM, a CC50 (A498; [1]) of 27.7 µM and a GI50 (ACHN; Renal) of 1.64 µM. For the same molecule, the Total growth inhibition (TGI) (ACHN; Renal) was 3.05 µM, the CC50 (ACHN; [3]) was 5.67 µM and the GI50 (CAKI-1) was 1.86 µM. The Total growth inhibition (TGI) (CAKI-1) was 4.81 µM, the GI50 (RXF 393) was 1.4 µM and the Total growth inhibition (TGI) (RXF 393) was 2.84 µM. For the same molecule, the CC50 (RXF 393; [1]) was 5.76 µM, the GI50 (SN12C; Renal) was 1.87 µM and the Total growth inhibition (TGI) (SN12C; Renal) was 3.96 µM. For the same molecule, the CC50 (SN12C; [3]) was 8.37 µM, the GI50 (UO-31) was 1.35 µM and the Total growth inhibition (TGI) (UO-31) was 2.69 µM. For the same molecule, the CC50 (UO-31; [1]) was 5.36 µM, the GI50 (MCF7) was 2 µM and the Total growth inhibition (TGI) (MCF7) was 9.09 µM. For the same molecule, the CC50 (MCF7; [1]) was over 100 µM, the GI50 (MDA-MB-231; MDA-MB-231, Breast) was 1.72 µM and the Total growth inhibition (TGI) (MDA-MB-231; MDA-MB-231/ATCC, Breast) was 3.25 µM. The CC50 (MDA-MB-231; read-out: 50% lethal concentration (LC50), MDA-MB-231/ATCC, Breast) was 6.15 µM, the GI50 (HS 578T; Breast) was 2.31 µM and the Total growth inhibition (TGI) (HS 578T; Breast) was 6.54 µM. It also gave a CC50 (HS 578T; [4]) of over 100 µM, a GI50 (T-47D; Breast) of 1.42 µM and a Total growth inhibition (TGI) (T-47D; Breast) of 3.47 µM. It also gave a CC50 (T-47D; [4]) of 8.47 µM.
